Structures can show the parent of a compound that is named as a salt.

The assay concerns the target 5HT2A (Homo sapiens, UniProt P28223). Briefly: 5HT2A Activity (% Max Activation @ 0.3 uM). Format: cell-based.

Sequence of 5HT2A (P28223 whole entry): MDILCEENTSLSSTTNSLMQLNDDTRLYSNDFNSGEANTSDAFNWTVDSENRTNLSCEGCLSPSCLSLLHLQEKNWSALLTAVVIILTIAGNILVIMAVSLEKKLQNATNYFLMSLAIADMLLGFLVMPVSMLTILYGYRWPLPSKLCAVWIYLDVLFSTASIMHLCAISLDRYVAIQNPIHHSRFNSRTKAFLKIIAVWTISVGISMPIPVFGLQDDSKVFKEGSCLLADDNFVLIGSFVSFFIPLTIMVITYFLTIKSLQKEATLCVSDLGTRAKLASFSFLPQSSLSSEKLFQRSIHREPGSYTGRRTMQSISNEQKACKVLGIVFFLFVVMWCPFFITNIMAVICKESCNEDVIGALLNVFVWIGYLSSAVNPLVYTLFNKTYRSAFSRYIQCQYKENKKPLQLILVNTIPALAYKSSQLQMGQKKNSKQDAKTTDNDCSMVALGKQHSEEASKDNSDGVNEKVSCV

Broadly, the Emax is the maximal effect, on the per cent scale that the assay sets. In turn, `COc1ccc(OC)c(CCNCc2cc(C)cc(F)c2)c1` [Compound 2-2, 2-(2,5-dimethoxyphenyl)-N-(3-fluoro-5-methylbenzyl)ethan-1-amine] came in with a maximal effect (Emax) at 0.3 µM of 76%.

`COc1cc([S@](C)(=N)=O)c(OC)cc1CCNCc1cc(C)cc(Cl)c1` [Compound 2-34, (R)-(4-(2-((3-chloro-5-methylbenzyl)amino)ethyl)-2,5-dimethoxyphenyl)(imino)(methyl)-16-sulfanone] showed an Emax at 0.3 µM of 56%.

`COc1ccc(OC)c([C@@H](O)CNCc2cc(C)cc(F)c2)c1` [Compound 2-41, (R)-1-(2,5-dimethoxyphenyl)-2-((3-fluoro-5-methylbenzyl)amino)ethan-1-ol hydrochloride]: the Emax at 0.3 µM was 74%.

Regarding `COc1ccc(OC)c2c1CCC(NCc1cccc(C)c1Cl)C2` (stereo not shown) [Compound 1-10, N-(2-chloro-3-methylbenzyl)-5,8-dimethoxy-1,2,3,4-tetrahydronaphthalen-2-amine], the Emax at 0.3 µM worked out at 2%.

In the case of `COc1ccc(OC)c2c1CCC(NCc1cccc(Cl)c1C)C2` (stereo not shown) [Compound 1-9, N-(3-chloro-2-methylbenzyl)-5,8-dimethoxy-1,2,3,4-tetrahydronaphthalen-2-amine], the Emax at 0.3 µM amounted to 7%. To `COc1cc(CCNCc2cc(C)cc(Cl)c2)c(OC)cc1Br` [Compound 2-22, 2-(4-bromo-2,5-dimethoxyphenyl)-N-(3-chloro-5-methylbenzyl)ethan-1-amine] belongs 85%; to `COc1cc(N2CCOCC2)c(OC)cc1CCNCc1cc(C)cc(Cl)c1` [Compound 2-31, N-(3-chloro-5-methylbenzyl)-2-(2,5-dimethoxy-4-morpholinophenyl)ethan-1-amine], 41%; to `COc1ccc(OC)c2c1CCC(NCc1cc(C)cc(Cl)c1)C2` (stereo not shown) [Compound 1-1, N-(3-chloro-5-methylbenzyl)-5,8-dimethoxy-1,2,3,4-tetrahydronaphthalen-2-amine], 67%. The same measure for `COc1ccc(OC)c2c1CCC2NCc1cc(C)cc(Cl)c1` (stereo not shown) [Compound 1-21, N-(3-chloro-5-methylbenzyl)-4,7-dimethoxy-2,3-dihydro-1H-1-inden-1-amine]: 9%; for `COc1ccc(OC)c(CCNCc2cccc(Cl)c2C)c1` [Compound 2-15]: 20%; for `COc1ccc(OC)c(CCNCc2cc(C)cc(I)c2)c1` [Compound 2-11, 2-(2,5-dimethoxyphenyl)-N-(3-iodo-5-methylbenzyl)ethan-1-amine]: 76%. The same measure for `COc1ccc(OC)c(CCNCc2ccc(Cl)c(C)c2)c1` [Compound 2-14, N-(4-chloro-3-methylbenzyl)-2-(2,5-dimethoxyphenyl)ethan-1-amine]: 1%; for `COc1ccc(OC)c(CCNCc2cc(C)cc(C#N)c2)c1` [Compound 2-36, 3-(((2,5-dimethoxyphenethyl)amino)methyl)-5-methylbenzonitrile]: 16%.

Consider `COc1cc(I)c(OC)c2c1CC(NCc1cc(C)cc(Cl)c1)CC2` (stereo not shown) [Compound 1-2A, N-(3-chloro-5-methylbenzyl)-6-iodo-5,8-dimethoxy-1,2,3,4-tetrahydronaphthalen-2-amine], for which the Emax at 0.3 µM was found to be 73%. The same measure for `COc1ccc(OC)c([C@@H](O)CNCc2cc(C)cc(Cl)c2)c1` [Compound 2-32, (R)-2-((3-chloro-5-methylbenzyl)amino)-1-(2,5-dimethoxyphenyl)ethan-1-ol]: 83%; for `COc1ccc(OC)c(CCNCc2cc(C)ccc2Cl)c1` [Compound 2-4, N-(2-chloro-5-methylbenzyl)-2-(2,5-dimethoxyphenyl)ethan-1-amine]: 67%; for `COc1cc(SC)c(OC)cc1CCNCc1cc(C)cc(Cl)c1` [Compound 2-24, N-(3-chloro-5-methylbenzyl)-2-(2,5-dimethoxy-4-(methylthio)phenyl)ethan-1-amine]: 91%. Regarding `COc1cc(CCNCc2cc(C)cc(Cl)c2)c(OC)cc1C` [Compound 2-18, N-(3-chloro-5-methylbenzyl)-2-(2,5-dimethoxy-4-methylphenyl)ethan-1-amine], the Emax at 0.3 µM worked out at 94%. To `COc1ccc(OC)c2c1CCC(NCc1cc(C)cc(I)c1)C2` (stereo not shown) [Compound 1-5, N-(3-iodo-5-methylbenzyl)-5,8-dimethoxy-1,2,3,4-tetrahydronaphthalen-2-amine] belongs 12%; to `COc1ccc(OC)c(CCNCc2cc(C)cc(Br)c2)c1` [Compound 2-10, N-(3-bromo-5-methylbenzyl)-2-(2,5-dimethoxyphenyl)ethan-1-amine], 79%; to `COc1ccc(OC)c2c1CCC(NCc1cc(Cl)cc(Cl)c1)C2` (stereo not shown) [Compound 1-15, N-(3,5-dichlorobenzyl)-5,8-dimethoxy-1,2,3,4-tetrahydronaphthalen-2-amine], 11%. `COc1cc(S(C)(=O)=O)c(OC)cc1CCNCc1cc(C)cc(Cl)c1` [Compound 2-26, (3-chloro-5-methylbenzyl)-2-(2,5-dimethoxy-4-(methylsulfonyl)phenyl)ethan-1-amine]: the Emax at 0.3 µM was 95%. To `COc1ccc(OC)c2c1CCC(NCc1ccc(Cl)cc1C)C2` (stereo not shown) [Compound 1-11, N-(4-chloro-2-methylbenzyl)-5,8-dimethoxy-1,2,3,4-tetrahydronaphthalen-2-amine] belongs 1%; to `COc1ccc(OC)c2c1CCC(NCc1cc(C)cc(F)c1)C2` (stereo not shown) [Compound 1-3, N-(3-fluoro-5-methylbenzyl)-5,8-dimethoxy-1,2,3,4-tetrahydronaphthalen-2-amine], 76%. The same measure for `COc1ccc(OC)c2c1CCC(NCc1cc(C)cc(Br)c1)C2` (stereo not shown) [Compound 1-4, N-(3-bromo-5-methylbenzyl)-5,8-dimethoxy-1,2,3,4-tetrahydronaphthalen-2-amine]: 42%; for `COc1cc(CCNCc2cc(C)cc(Cl)c2)c(OC)cc1C#N` [Compound 2-23, 4-(2-((3-chloro-5-methylbenzyl)amino)ethyl)-2,5-dimethoxybenzonitrile]: 96%; for `COc1ccc(OC)c2c1CC(NCc1cc(C)cc(Cl)c1)C2` [Compound 1-20, N-(3-chloro-5-methylbenzyl)-4,7-dimethoxy-2,3-dihydro-1H-inden-2-amine hydrochloride]: 59%. The molecule `COc1ccc(OC)c2c1CCC(NCc1cccc(Cl)c1Cl)C2` (stereo not shown) [Compound 1-17, N-(2,3-dichlorobenzyl)-5,8-dimethoxy-1,2,3,4-tetrahydronaphthalen-2-amine] yielded an Emax at 0.3 µM of 1%. The same measure for `COc1ccc(OC)c([C@H](O)CNCc2cc(C)cc(Cl)c2)c1` [Compound 2-33, (S)-2-((3-chloro-5-methylbenzyl)amino)-1-(2,5-dimethoxyphenyl)ethan-1-ol]: 39%.

As to `COc1cc([S@@](C)(=N)=O)c(OC)cc1CCNCc1cc(C)cc(Cl)c1` [Compound 2-35, (S)-(4-(2-((3-chloro-5-methylbenzyl)amino)ethyl)-2,5-dimethoxyphenyl)(imino)(methyl)-16-sulfanone], the Emax at 0.3 µM turned out to be 50%. The molecule `COc1cc([S+](C)[O-])c(OC)cc1CCNCc1cc(C)cc(Cl)c1` (stereo not shown) [Compound 2-25, N-(3-chloro-5-methylbenzyl)-2-(2,5-dimethoxy-4-(methylsulfinyl)phenyl)-ethan-1-amine] yielded an Emax at 0.3 µM of 95%. The same measure for `COc1ccc(OC)c(C(O)CNCc2cc(C)cc(Cl)c2)c1` (stereo not shown) [Compound 2-30, 2-((3-chloro-5-methylbenzyl)amino)-1-(2,5-dimethoxyphenyl)ethan-1-ol]: 80%. As for `COc1ccc(OC)c(CCNCc2cc(C)cc([N+](=O)[O-])c2)c1` [Compound 2-9, 2-(2,5-dimethoxyphenyl)-N-(3-methyl-5-nitrobenzyl)ethan-1-amine], the Emax at 0.3 µM is 5%. As for `COc1ccc(OC)c(CC(CO)NCc2cc(C)cc(Cl)c2)c1` (stereo not shown) [Compound 2-29, 2-((3-chloro-5-methylbenzyl)amino)-3-(2,5-dimethoxyphenyl)propan-1-ol], the Emax at 0.3 µM was determined as 27%.

In turn, `COc1cc(CCNCc2cc(C)cc(Cl)c2)c(OC)cc1F` [Compound 2-20, N-(3-chloro-5-methylbenzyl)-2-(4-fluoro-2,5-dimethoxyphenyl)ethan-1-amine] gave an Emax at 0.3 µM of 89%. The same measure for `COc1ccc(OC)c2c1CCC(NCc1ccccc1)C2` (stereo not shown) [Compound 1-18, N-benzyl-5,8-dimethoxy-1,2,3,4-tetrahydronaphthalen-2-amine]: 6%. To `COc1cc(CCNCc2cc(C)cc(Cl)c2)c(OC)cc1Cl` [Compound 2-21, 2-(4-chloro-2,5-dimethoxyphenyl)-N-(3-chloro-5-methylbenzyl)ethan-1-amine] belongs 92%; to `COc1ccc(OC)c(CCNCc2cccc(C)c2Cl)c1` [Compound 2-16, N-(2-chloro-3-methylbenzyl)-2-(2,5-dimethoxyphenyl)ethan-1-amine], 64%; to `COc1ccc(OC)c2c1CCC(NCc1cc(C)ccc1Cl)C2` (stereo not shown) [Compound 1-13, N-(2-chloro-5-methylbenzyl)-5,8-dimethoxy-1,2,3,4-tetrahydronaphthalen-2-Amine], 15%. The same measure for `COc1ccc(OC)c2c1CCC(NCc1ccc(C)cc1Cl)C2` (stereo not shown) [Compound 1-12, N-(2-chloro-4-methylbenzyl)-5,8-dimethoxy-1,2,3,4-tetrahydronaphthalen-2-amine]: 4%.

`COc1cc(C)c(OC)c2c1CC(NCc1cc(C)cc(Cl)c1)CC2` (stereo not shown) [Compound 1-19, N-(3-chloro-5-methylbenzyl)-5,8-dimethoxy-6-methyl-1,2,3,4-tetrahydro-naphthalen-2-amine hydrochloride] registered an Emax at 0.3 µM of 73%. The same measure for `COc1ccc(OC)c(CCNCc2cc(Cl)cc(Cl)c2)c1` [Compound 2-6, N-(3,5-dichlorobenzyl)-2-(2,5-dimethoxyphenyl)ethan-1-amine]: 68%. As to `COc1ccc(OC)c(CCNCc2cccc(Cl)c2Cl)c1` [Compound 2-8, N-(2,3-dichlorobenzyl)-2-(2,5-dimethoxyphenyl)ethan-1-amine], the Emax at 0.3 µM was found to be 33%.

The values are drawn from patent US11926574B2, “Dimethoxyphenylalkylamine activators of serotonin receptors” (Entheogenix Biosciences, Inc., priority 2021, dated 2024).
